Measured values as given in ChEMBL document CHEMBL3727368, “Thienopyrimidine inhibitors of atypical protein kinase C” (2013).

Experiments:
[1] = molecular target: T1, Protein kinase C iota type (Homo sapiens, UniProt P41743); test: Inhibition of recombinant full-length human PKC-iota expressed in Sf21 cells using FAM-PKCs pseudopeptide derived peptide substrate and 150 uM ATP by fluorescence polarization based IMAP assay
T1 sequence (P41743 whole entry): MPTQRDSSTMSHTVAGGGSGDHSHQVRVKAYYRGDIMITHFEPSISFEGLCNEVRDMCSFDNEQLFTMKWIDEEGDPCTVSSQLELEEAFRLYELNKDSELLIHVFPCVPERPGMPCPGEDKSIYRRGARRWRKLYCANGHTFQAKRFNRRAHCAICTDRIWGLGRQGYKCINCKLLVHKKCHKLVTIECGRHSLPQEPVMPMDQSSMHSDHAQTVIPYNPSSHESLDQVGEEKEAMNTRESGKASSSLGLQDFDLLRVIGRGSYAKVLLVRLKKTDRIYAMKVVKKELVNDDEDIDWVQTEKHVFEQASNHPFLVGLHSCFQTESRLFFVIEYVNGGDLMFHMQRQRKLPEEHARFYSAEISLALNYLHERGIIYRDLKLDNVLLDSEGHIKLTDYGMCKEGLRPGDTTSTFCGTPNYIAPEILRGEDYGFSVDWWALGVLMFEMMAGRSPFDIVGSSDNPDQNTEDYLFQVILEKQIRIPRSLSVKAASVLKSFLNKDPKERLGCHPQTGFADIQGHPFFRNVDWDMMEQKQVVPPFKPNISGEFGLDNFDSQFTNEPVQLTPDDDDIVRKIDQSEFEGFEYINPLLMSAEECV

[2] = molecular target: T1, Protein kinase C iota type; test: Inhibition of recombinant human PKC-iota kinase domain expressed in Sf21 cells using FAM-PKCs pseudopeptide derived peptide substrate and 25 uM ATP by fluorescence polarization based IMAP assay

**Q.** For `N[C@H](CNc1nc(-c2ccncc2)nc2c(-c3ccn[nH]3)csc12)Cc1ccccc1`, which IC50 [1] is on record?
**A.** The IC50 was < 100 nM.

**Q.** Which IC50 [1] does the source give for `C[C@@H](F)C#Cc1csc2c(NC[C@@H](N)Cc3ccccc3)nc(-c3ccncc3)nc12` here?
**A.** The IC50 was < 100 nM.

**Q.** With `N[C@H](CNc1nc(-c2ccncc2)nc2c(C#CC3CC3)csc12)Cc1ccccc1` as the compound, how does the IC50 [1] read?
**A.** Its IC50 is < 100 nM.

**Q.** Which IC50 [1] does the source give for `N[C@H](CNc1nc(-c2ccncc2)nc2c(-c3cn[nH]n3)csc12)Cc1ccccc1` here?
**A.** Its IC50 is < 100 nM.

**Q.** For `N[C@H](CNc1nc(-c2ccncc2)nc2c(Cl)csc12)Cc1ccccc1`, which IC50 [1] is on record?
**A.** The IC50 was < 100 nM.

**Q.** For `Cc1sc2c(NC[C@@H](N)Cc3ccccc3)nc(-c3ccncc3)nc2c1-c1ccn[nH]1`, which IC50 [1] is on record?
**A.** The IC50 was < 100 nM.

**Q.** Which IC50 [1] does the source give for `N[C@H](CNc1nc(-c2ccncc2)nc2c(Br)csc12)Cc1ccccc1` here?
**A.** The IC50 was < 100 nM.

**Q.** With `N[C@H](CNc1nc(-c2ccncc2)nc2c(Nc3ccccn3)csc12)Cc1ccccc1` as the compound, how does the IC50 [1] read?
**A.** Its IC50 is < 100 nM.

**Q.** With `N[C@H](CNc1nc(-c2ccncc2F)nc2c(C#CCO)csc12)Cc1ccccc1` as the compound, how does the IC50 [1] read?
**A.** Its IC50 is < 100 nM.

**Q.** Which IC50 [1] does the source give for `CC(O)C#Cc1csc2c(NC[C@@H](N)Cc3ccccc3)nc(-c3ccncc3)nc12` (stereo partly drawn) here?
**A.** The IC50 was < 100 nM.

**Q.** How did the IC50 [2] turn out when `Cc1csc2c(NC[C@@H](N)Cc3ccccc3)nc(-c3ccncc3)nc12` was run?
**A.** Its IC50 is < 100 nM.

**Q.** `CC(C)(C)OC(=O)N1CCc2c(sc3nc(-c4ccncc4)nc(NCCN)c23)C1` was tested. Which IC50 [1] did it give?
**A.** The IC50 was ≥ 10000 nM.

**Q.** How did the IC50 [1] turn out when `C[C@H](O)C#Cc1csc2c(NC[C@@H](N)Cc3ccccc3)nc(-c3ccncc3)nc12` was run?
**A.** The IC50 was < 100 nM.

**Q.** For `Cc1ccc(CN2CCN(c3nc(-c4ccncc4)nc4sc5c(c34)CCCC5)CC2)cc1`, which IC50 [2] is on record?
**A.** The IC50 was ≥ 10000 nM.

**Q.** `N[C@H](CNc1nc(-c2ccncc2)nc2c(NC(=O)C3CCCC3)csc12)Cc1ccccc1` was tested. Which IC50 [1] did it give?
**A.** Its IC50 is ≥ 10000 nM.

**Q.** `N[C@H](CNc1nc(-c2ccncc2)nc2c(C#CC3(O)CCC3)csc12)Cc1ccccc1` was tested. Which IC50 [1] did it give?
**A.** Its IC50 is < 100 nM.

**Q.** Which IC50 [1] does the source give for `C#Cc1csc2c(NC[C@@H](N)Cc3ccccc3)nc(-c3ccncc3)nc12` here?
**A.** The IC50 was < 100 nM.

**Q.** For `C=Cc1csc2c(NC[C@@H](N)Cc3ccccc3)nc(-c3ccncc3)nc12`, which IC50 [1] is on record?
**A.** The IC50 was < 100 nM.

**Q.** For `COCC#Cc1csc2c(NC[C@@H](N)Cc3ccccc3)nc(-c3ccncc3)nc12`, which IC50 [1] is on record?
**A.** The IC50 was < 100 nM.

**Q.** `c1cc(-c2nc(N[C@@H]3CCNC3)c3scc(-c4ccn[nH]4)c3n2)ccn1` was tested. Which IC50 [1] did it give?
**A.** The IC50 was < 100 nM.

**Q.** For `Cc1cc(-c2csc3c(NC[C@@H](N)Cc4ccccc4)nc(-c4ccncc4)nc23)n[nH]1`, which IC50 [1] is on record?
**A.** The IC50 was < 100 nM.

**Q.** `CC(C)S(=O)(=O)c1cccc(Nc2cc(-c3nc(N[C@@H]4CCNC4)c4sccc4n3)ccn2)c1` was tested. Which IC50 [1] did it give?
**A.** Its IC50 is ≥ 1000 nM.

**Q.** How did the IC50 [1] turn out when `N[C@H](CNc1nc(-c2ccncc2)nc2sc3c(c12)CCCC3)Cc1ccccc1O` was run?
**A.** The IC50 was < 100 nM.

**Q.** For `N[C@H](CNc1nc(-c2ccncc2)nc2c(/C=C/C3CC3)csc12)Cc1ccccc1`, which IC50 [1] is on record?
**A.** Its IC50 is < 100 nM.

**Q.** `CC[C@H](O)C#Cc1csc2c(NC[C@@H](N)Cc3ccccc3)nc(-c3ccncc3)nc12` was tested. Which IC50 [1] did it give?
**A.** The IC50 was < 100 nM.

**Q.** How did the IC50 [1] turn out when `N[C@H](CNc1nc(-c2ccncc2)nc2c(Nc3ccon3)csc12)Cc1ccccc1` was run?
**A.** Its IC50 is < 100 nM.

**Q.** How did the IC50 [1] turn out when `N[C@H](CNc1nc(-c2ccncc2)nc2c(C#CC3(O)CC3)csc12)Cc1ccccc1` was run?
**A.** Its IC50 is < 100 nM.

**Q.** Which IC50 [1] does the source give for `CC(C)(O)C#Cc1csc2c(NC[C@@H](N)Cc3ccccc3)nc(-c3ccncc3)nc12` here?
**A.** Its IC50 is < 100 nM.

**Q.** `N[C@H](CNc1nc(-c2ccncc2F)nc2c(Br)csc12)Cc1ccccc1` was tested. Which IC50 [1] did it give?
**A.** Its IC50 is < 100 nM.

**Q.** With `C[C@H](O)C#Cc1csc2c(N[C@@H]3CCNC3)nc(-c3ccncc3)nc12` as the compound, how does the IC50 [1] read?
**A.** The IC50 was < 100 nM.

**Q.** How did the IC50 [1] turn out when `F[C@H]1NCC[C@H]1Nc1nc(-c2ccncc2)nc2ccsc12` was run?
**A.** Its IC50 is ≥ 10000 nM.

**Q.** With `CNC(=O)c1csc2c(NC[C@@H](N)Cc3ccccc3)nc(-c3ccncc3)nc12` as the compound, how does the IC50 [1] read?
**A.** The IC50 was < 100 nM.

**Q.** Which IC50 [1] does the source give for `N[C@H](CNc1nc(-c2ccncc2)nc2c(C#CCF)csc12)Cc1ccccc1` here?
**A.** Its IC50 is < 100 nM.

**Q.** With `N[C@H](CNc1nc(-c2ccncc2F)nc2c(-c3cc[nH]n3)csc12)Cc1ccccc1` as the compound, how does the IC50 [1] read?
**A.** The IC50 was < 100 nM.

**Q.** With `N[C@H](CNc1nc(-c2ccncc2)nc2c(-c3ccccc3Cl)c(C(F)(F)F)sc12)Cc1ccccc1` as the compound, how does the IC50 [1] read?
**A.** The IC50 was ≥ 10000 nM.

**Q.** How did the IC50 [1] turn out when `CC(O)CC#Cc1csc2c(NC[C@@H](N)Cc3ccccc3)nc(-c3ccncc3)nc12` (stereo partly drawn) was run?
**A.** Its IC50 is < 100 nM.

**Q.** How did the IC50 [1] turn out when `N[C@H](CNc1nc(-c2ccncc2)nc2c(C#CCO)csc12)Cc1ccccc1` was run?
**A.** Its IC50 is < 100 nM.

**Q.** Which IC50 [2] does the source give for `Cc1csc2nc(-c3ccncc3)nc(N3CCNCC3)c12` here?
**A.** The IC50 was < 100 nM.

**Q.** How did the IC50 [1] turn out when `C[C@@H](O)C#Cc1csc2c(NC[C@@H](N)Cc3ccccc3)nc(-c3ccncc3)nc12` was run?
**A.** Its IC50 is < 100 nM.

**Q.** Which IC50 [1] does the source give for `N[C@H](CNc1nc(-c2ccncc2)nc2c(C#CC3(O)CCCC3)csc12)Cc1ccccc1` here?
**A.** Its IC50 is < 100 nM.

**Q.** With `N[C@H](CNc1nc(-c2ccncc2)nc2c(C#Cc3cc[nH]n3)csc12)Cc1ccccc1` as the compound, how does the IC50 [1] read?
**A.** Its IC50 is < 100 nM.

**Q.** How did the IC50 [1] turn out when `N[C@H](CNc1nc(-c2ccncc2)nc2c(C#CCCO)csc12)Cc1ccccc1` was run?
**A.** The IC50 was < 100 nM.

**Q.** How did the IC50 [1] turn out when `CCc1cc(-c2csc3c(NC[C@@H](N)Cc4ccccc4)nc(-c4ccncc4)nc23)[nH]n1` was run?
**A.** Its IC50 is < 100 nM.

**Q.** How did the IC50 [1] turn out when `CCC[C@@H](O)[C@H](O)C#Cc1csc2c(NC[C@@H](N)Cc3ccccc3)nc(-c3ccncc3)nc12` was run?
**A.** The IC50 was ≥ 1000 nM.

**Q.** How did the IC50 [1] turn out when `N[C@H](CNc1nc(-c2ccncc2)nc2c(/C=C/C(=O)O)csc12)Cc1ccccc1` was run?
**A.** The IC50 was ≤ 1000 nM.

**Q.** How did the IC50 [1] turn out when `Cc1sc2c(NC[C@@H](N)Cc3ccccc3)nc(-c3ccncc3)nc2c1Br` was run?
**A.** The IC50 was < 100 nM.

**Q.** `Brc1csc2c(N[C@@H]3CCNC3)nc(-c3ccncc3)nc12` was tested. Which IC50 [1] did it give?
**A.** The IC50 was < 100 nM.

**Q.** How did the IC50 [1] turn out when `N[C@H](CNc1nc(-c2ccncc2)nc2c(C3CC3)csc12)Cc1ccccc1` was run?
**A.** Its IC50 is < 100 nM.

**Q.** `C/C=C\c1csc2c(NC[C@@H](N)Cc3ccccc3)nc(-c3ccncc3)nc12` was tested. Which IC50 [1] did it give?
**A.** Its IC50 is < 100 nM.

**Q.** Which IC50 [1] does the source give for `N#Cc1csc2c(NC[C@@H](N)Cc3ccccc3)nc(-c3ccncc3)nc12` here?
**A.** Its IC50 is < 100 nM.

**Q.** Which IC50 [2] does the source give for `C[C@H](N)CNc1nc(-c2ccncc2)nc2sc3c(c12)CCCC3` here?
**A.** Its IC50 is < 100 nM.

**Q.** Which IC50 [1] does the source give for `Cc1sc2c(NC[C@@H](N)Cc3ccccc3)nc(-c3ccncc3)nc2c1C#CC(C)(C)O` here?
**A.** The IC50 was < 100 nM.

**Q.** With `CC#Cc1csc2c(NC[C@@H](N)Cc3ccccc3)nc(-c3ccncc3)nc12` as the compound, how does the IC50 [1] read?
**A.** The IC50 was < 100 nM.
